Source: patent US8063065B2, “Azaindazole compounds as CCR1 receptor antagonists” (Boehringer Ingelheim International GmbH, priority 2008, dated 2011)

target: T1, CCR1 (Homo sapiens, UniProt P32246); assay: Method B: calcium flux in CCR1 transfected cells (Calcium 4 dye, […] FDSS6000), block of the CCR1/MIP-1α interaction; type: cell-based; conditions: Method B: Calcium 4 dye, MIP-1alpha at EC80
T1 sequence (P32246 1-355): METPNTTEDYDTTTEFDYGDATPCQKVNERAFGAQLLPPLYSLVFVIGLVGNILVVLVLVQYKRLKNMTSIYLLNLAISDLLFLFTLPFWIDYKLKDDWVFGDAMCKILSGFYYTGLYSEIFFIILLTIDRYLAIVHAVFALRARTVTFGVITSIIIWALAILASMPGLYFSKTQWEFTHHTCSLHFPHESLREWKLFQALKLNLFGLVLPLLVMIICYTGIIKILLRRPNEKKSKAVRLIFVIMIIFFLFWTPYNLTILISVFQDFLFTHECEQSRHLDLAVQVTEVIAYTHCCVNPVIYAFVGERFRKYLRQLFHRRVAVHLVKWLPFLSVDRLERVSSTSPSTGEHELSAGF
Protocol: Compounds are assessed for the ability to block the interaction of CCR1 and MIP-1α in a functional cellular assay measuring calcium flux in CCR1 transfected cells.
Method B: Non-adherent cells purchased from Chemicon Corporation (HTS005C), stably expressing recombinant CCR1 and G-alpha-16 are grown in RPMI 1640 medium (Mediatech 10-080-CM) supplemented with 10% FBS, 0.4 mg/mL Geneticin and penicillin/streptomycin. On the day of the assay, the cells are loaded with Calcium 4 dye (Molecular Devices R7448) with Probenecid (Invitrogen P346400) at 8E5 cells/mL for 1 hour at room temperature. After 1 hour, they are seeded in a 384-well tissue culture-treated plate at a density of 20,000 cells/well. Appropriately diluted test compound is added to the well to achieve a top concentration of 3,000 nM (diluted 4-fold with 10 doses total). The final concentration of DMSO is 1%. The buffer is HBSS (Invitrogen 14025) with 20 mM HEPES at pH 7.4. The cells incubate 30 minutes at 37 C and then 30 minutes at room temperature. The plates are transferred to the […] FDSS6000 where MIP-1alpha in 1% BSA is added at the EC80 final concentration. All plates must be read within 4 hours of the start of dye-loading. Wells+/−MIP-1alpha containing diluted DMSO instead of compound serve as the controls. Data are analyzed using Activity Base software.

| Structure (SMILES) | IC50 [nM] |
| --- | --- |
| CCC(NC(=O)c1cncc2c1cnn2-c1ccc(F)cc1)c1nc(C(=O)NC)c(C)o1 (centres unmarked) [1-(4-Fluorophenyl)-1H-pyrazolo[3,4-c]pyridine-4-carboxylic acid [1-(5-methyl-4-methylcarbamoyl-oxazol-2-yl)-propyl]-amide] | 9 |
| CCC(NC(=O)c1cncc2c1cnn2-c1ccc(F)cc1)c1ccc(S(C)(=O)=O)[n+]([O-])c1 (centres unmarked) [1-(4-Fluorophenyl)-1H-pyrazolo[3,4-c]pyridine-4-carboxylic acid [1-(6-methanesulfonyl-1-oxy-pyridin-3-yl)-propyl]-amide] | 9 |
| CCC(CC)(NC(=O)c1cncc2c1cnn2-c1ccc(F)cc1)c1ccnc(S(C)(=O)=O)c1 [1-(4-Fluorophenyl)-1H-pyrazolo[3,4-c]pyridine-4-carboxylic acid [1-ethyl-1-(2-methanesulfonyl-pyridin-4-yl)-propyl]-amide] | 16 |
| CCC(CC)(NC(=O)c1cncc2c1cnn2-c1ccc(F)cc1)c1cnc(S(C)(=O)=O)s1 [1-(4-Fluorophenyl)-1H-pyrazolo[3,4-c]pyridine-4-carboxylic acid [1-ethyl-1-(2-methanesulfonyl-thiazol-5-yl)-propyl]-amide] | 28 |
| CC(C)(O)CNc1cc(CNC(=O)c2cncc3c2cnn3-c2ccc(F)cc2)cc(S(C)(=O)=O)n1 [1-(4-Fluorophenyl)-1H-pyrazolo[3,4-c]pyridine-4-carboxylic acid [2-(2-hydroxy-2-methyl-propylamino)-6-methanesulfonyl-pyridin-4-ylmethyl]-amide] | 0.7 |
| CC(=O)N(C)c1ncc(CNC(=O)c2cncc3c2cnn3-c2ccc(F)cc2)cn1 [1-(4-Fluorophenyl)-1H-pyrazolo[3,4-c]pyridine-4-carboxylic acid [2-(acetyl-methyl-amino)-pyrimidin-5-ylmethyl]-amide] | 24 |
| CS(=O)(=O)c1cc(CNC(=O)c2cncc3c2cnn3-c2ccc(F)cc2)cc(NCC(N)=O)n1 [1-(4-Fluorophenyl)-1H-pyrazolo[3,4-c]pyridine-4-carboxylic acid [2-(carbamoylmethyl-amino)-6-methanesulfonyl-pyridin-4-ylmethyl]-amide] | 11 |
| CN(CC(N)=O)c1cc(CNC(=O)c2cncc3c2cnn3-c2ccc(F)cc2)cc(S(C)(=O)=O)n1 [1-(4-Fluorophenyl)-1H-pyrazolo[3,4-c]pyridine-4-carboxylic acid [2-(carbamoylmethyl-methyl-amino)-6-methanesulfonyl-pyridin-4-ylmethyl]-amide] | 3 |
| CN(c1ncc(CNC(=O)c2cncc3c2cnn3-c2ccc(F)cc2)cn1)S(C)(=O)=O [1-(4-Fluorophenyl)-1H-pyrazolo[3,4-c]pyridine-4-carboxylic acid [2-(methanesulfonyl-methyl-amino)-pyrimidin-5-ylmethyl]-amide] | 2 |
| O=C(N[C@@H](CO)c1ccnc(Br)c1)c1cncc2c1cnn2-c1ccc(F)cc1 [1-(4-Fluorophenyl)-1H-pyrazolo[3,4-c]pyridine-4-carboxylic acid [(R)-1-(2-bromo-pyridin-4-yl)-2-hydroxy-ethyl]-amide] | 2 |
| COC[C@H](NC(=O)c1cncc2c1cnn2-c1ccc(F)cc1)c1ccnc(Br)c1 [1-(4-Fluorophenyl)-1H-pyrazolo[3,4-c]pyridine-4-carboxylic acid [(R)-1-(2-bromopyridin-4-yl)-2-methoxy-ethyl]-amide] | 0.5 |
| COC[C@H](NC(=O)c1cncc2c1cnn2-c1ccc(F)cc1)c1ccnc(S(C)(=O)=O)c1 [1-(4-Fluorophenyl)-1H-pyrazolo[3,4-c]pyridine-4-carboxylic acid [(R)-1-(2-methanesulfonyl-pyridin-4-yl)-2-methoxy-ethyl]-amide] | 1 |
| CCC[C@@H](NC(=O)c1cncc2c1cnn2-c1ccc(F)cc1)c1ccc(OC)c(Br)c1 [1-(4-Fluorophenyl)-1H-pyrazolo[3,4-c]pyridine-4-carboxylic acid [(R)-1-(3-bromo-4-methoxy-phenyl)-butyl]-amide] | 0.3 |
| CC[C@@H](NC(=O)c1cncc2c1cnn2-c1ccc(F)cc1)c1ccc(OC)c(Br)c1 [1-(4-Fluorophenyl)-1H-pyrazolo[3,4-c]pyridine-4-carboxylic acid [(R)-1-(3-bromo-4-methoxy-phenyl)-propyl]-amide] | 0.2 |
| CCC[C@@H](NC(=O)c1cncc2c1cnn2-c1ccc(F)cc1)c1ccc(OC)c(S(C)(=O)=O)c1 [1-(4-Fluorophenyl)-1H-pyrazolo[3,4-c]pyridine-4-carboxylic acid [(R)-1-(3-methanesulfonyl-4-methoxy-phenyl)-butyl]-amide] | 0.2 |
| CC[C@@H](NC(=O)c1cncc2c1cnn2-c1ccc(F)cc1)c1ccc(OC)c(S(C)(=O)=O)c1 [1-(4-Fluorophenyl)-1H-pyrazolo[3,4-c]pyridine-4-carboxylic acid [(R)-1-(3-methanesulfonyl-4-methoxy-phenyl)-propyl]-amide] | 0.2 |
| CCC[C@@H](NC(=O)c1cncc2c1cnn2-c1ccc(F)cc1)c1ccc(O)c(S(C)(=O)=O)c1 [1-(4-Fluorophenyl)-1H-pyrazolo[3,4-c]pyridine-4-carboxylic acid [(R)-1-(4-hydroxy-3-methanesulfonyl-phenyl)-butyl]-amide] | 0.2 |
| CC[C@@H](NC(=O)c1cncc2c1cnn2-c1ccc(F)cc1)c1cc(S(C)(=O)=O)cn1C [1-(4-Fluorophenyl)-1H-pyrazolo[3,4-c]pyridine-4-carboxylic acid [(R)-1-(4-methanesulfonyl-1-methyl-1H-pyrrol-2-yl)-propyl]-amide] | 7 |
| CS(=O)(=O)c1cc([C@H](CO)NC(=O)c2cncc3c2cnn3-c2ccc(F)cc2)ccn1 [1-(4-Fluorophenyl)-1H-pyrazolo[3,4-c]pyridine-4-carboxylic acid [(R)-2-hydroxy-1-(2-methanesulfonyl-pyridin-4-yl)-ethyl]-amide] | 6 |
| CC[C@H](NC(=O)c1cncc2c1cnn2-c1ccc(F)cc1)c1ccn(S(C)(=O)=O)n1 [1-(4-Fluorophenyl)-1H-pyrazolo[3,4-c]pyridine-4-carboxylic acid [(S)-1-(1-methanesulfonyl-1H-pyrazol-3-yl)-propyl]-amide] | 3 |
| CC[C@H](NC(=O)c1cncc2c1cnn2-c1ccc(F)cc1)c1cnn(C)c1 [1-(4-Fluorophenyl)-1H-pyrazolo[3,4-c]pyridine-4-carboxylic acid [(S)-1-(1-methyl-1H-pyrazol-4-yl)-propyl]-amide] | 11 |
| CC[C@H](NC(=O)c1cncc2c1cnn2-c1ccc(F)cc1)c1cn[nH]c1 [1-(4-Fluorophenyl)-1H-pyrazolo[3,4-c]pyridine-4-carboxylic acid [(S)-1-(1H-pyrazol-4-yl)-propyl]-amide] | 36 |
| C[C@H](NC(=O)c1cncc2c1cnn2-c1ccc(F)cc1)c1ccnc(Br)c1 [1-(4-Fluorophenyl)-1H-pyrazolo[3,4-c]pyridine-4-carboxylic acid [(S)-1-(2-bromopyridin-4-yl)-ethyl]-amide] | 0.4 |
| CC[C@H](NC(=O)c1cncc2c1cnn2-c1ccc(F)cc1)c1ccnc(C(N)=O)c1 [1-(4-Fluorophenyl)-1H-pyrazolo[3,4-c]pyridine-4-carboxylic acid [(S)-1-(2-carbamoyl-pyridin-4-yl)-propyl]-amide] | 1 |
| CC[C@H](NC(=O)c1cncc2c1cnn2-c1ccc(F)cc1)c1cc(Cl)nc(S(C)(=O)=O)c1 [1-(4-Fluorophenyl)-1H-pyrazolo[3,4-c]pyridine-4-carboxylic acid [(S)-1-(2-chloro-6-methanesulfonyl-pyridin-4-yl)-propyl]-amide] | 0.3 |
| CC[C@H](NC(=O)c1cncc2c1cnn2-c1ccc(F)cc1)c1ccnc(Cl)c1 [1-(4-Fluorophenyl)-1H-pyrazolo[3,4-c]pyridine-4-carboxylic acid [(S)-1-(2-chloropyridin-4-yl)-propyl]-amide] | 0.2 |
| CC[C@H](NC(=O)c1cncc2c1cnn2-c1ccc(F)cc1)c1ccnc(C#N)c1 [1-(4-Fluorophenyl)-1H-pyrazolo[3,4-c]pyridine-4-carboxylic acid [(S)-1-(2-cyano-pyridin-4-yl)-propyl]-amide] | 0.3 |
| C[C@H](NC(=O)c1cncc2c1cnn2-c1ccc(F)cc1)c1cc(N(C)C)nc(S(C)(=O)=O)c1 [1-(4-Fluorophenyl)-1H-pyrazolo[3,4-c]pyridine-4-carboxylic acid [(S)-1-(2-dimethylamino-6-methanesulfonyl-pyridin-4-yl)-ethyl]-amide] | 0.2 |
| CC[C@H](NC(=O)c1cncc2c1cnn2-c1ccc(F)cc1)c1cc(N(C)C)nc(S(C)(=O)=O)c1 [1-(4-Fluorophenyl)-1H-pyrazolo[3,4-c]pyridine-4-carboxylic acid [(S)-1-(2-dimethylamino-6-methanesulfonyl-pyridin-4-yl)-propyl]-amide] | 0.2 |
